The values below come from article PMC11881136, “Development of a Novel ^18F-Labeled Radioligand for Imaging Phosphodiesterase 7 with Positron Emission Tomography” (Molecular Pharmaceutics, 2025).

The structures appear in SMILES notation. Like-named read-outs stand apart in the source and are kept apart here.

The subject of series [1] is PDE7. In words: Phosphodiesterase 7 inhibition assay (Eurofins). It is filed as biochemical. Conditions: for Inhibiton at 0.5 nM: PDE7, 0.5 nM. As to the method: (§1) The inhibition assay of phosphodiesterase 7 with compounds 1–7 was performed by Eurofins. The inhibition assay of other phosphodiesterases with compound 7 was performed by Reaction Biology Corporation at a concentration of 3 μM.

Series [2] addresses PDE7. Also noted: method as in PMID 32246980. To be noted: read-out: binding affinity KD toward PDE7; cited from earlier work.
Details of series [3]: method as in PMID 32246980. Conditions: cited from earlier work.
Series [4] in a line: In vitro stability in formulation solution (saline). It is filed as physicochemical. To be noted: up to 60 or 120 min.
Series [5] in a line: In vitro stability in mouse serum. Type of series: in vitro ADME. To be noted: up to 60 or 120 min.
Series [6] in a line: In vitro stability in rat serum. It is filed as in vitro ADME. To be noted: up to 60 or 120 min.
Series [7] is described as follows: In vitro stability in NHP serum. Type of series: in vitro ADME. Conditions: up to 60 or 120 min.
Series [8] is described as follows: In vitro stability in human serum. Type of series: in vitro ADME. To be noted: up to 60 or 120 min.
Series [9] has as its system PDE7. The experiment in a line: PET imaging in rat brains. Type of series: in vivo. As to the method:
PET imaging was carried out as previously reported.[26] [^18F]7 (30–40 uCi) was administered to SD rats via the tail vein, and dynamic scans were conducted with a G8 scanner (Sofie) for 1 h (n = 4). In blocking studies, elacridar (5 mg/kg) was administered intravenously at 20 min before the administration of [^18F]7, and P7–2104 or 7 (3 mg/kg) was administered intravenously at 10 min before the administration of [^18F]7 (n = 3). PET data were analyzed with PMOD (PMOD Technologies LLC, Switzerland).

Series [10] can be described thus: Ex vivo whole-body biodistribution in CD-1 mice. Also noted: species or system mouse. Here is the method:
Whole-Body biodistribution was carried out as previously reported.[27],[28] [^18F]7 (10 μCi/100 μL) was administered intravenously to CD-1 mice, which were sacrificed at 5, 15, 30, and 60 min after administration of [^18F]7 (n = 3). Tissues of interest were collected, weighted, and measured by a γ counter.

The nature of series [11]: Radiometabolic analysis in rats. It is filed as in vivo. To be noted: rat, 30 min post administration. As to the method:
[^18F]7 was injected via the tail vein of SD rats and then euthanized 30 min after administration of [^18F]7 (0.1 mCi per rat, n = 2). The brain was collected, homogenized, and cold acetonitrile (0.2 mL) was added then centrifuged (14 000g, 5 min) at 4 °C. This step was repeated until there was no obvious precipitation formed. Then the supernatant was injected into a radioHPLC with unlabeled 7 as the internal standard. Both [^18F]7 and its ^18F-metabolites were collected by HPLC and then measured by γ counter. The same procedure was conducted for plasma.

For another series, the system named is other PDEs subfamilies. The experiment in a line: Inhibition assay of other phosphodiesterases (Reaction Biology Corporation). Type of series: biochemical. To be noted: 3 μM; other than PDE4. As to the method:
as §1

In another series the test system is PDE4. In words: Inhibition assay of other phosphodiesterases: PDE4. It is filed as biochemical. Conditions: 3 μM. Here is the method:
as §1

The target of another series is T1, PDE4B (Homo sapiens, UniProt Q07343).
T1 construct: purchased Reaction Biology Corporation
The experiment in a line: Inhibition assay of other phosphodiesterases: PDE4B. It is filed as biochemical. Here is the method: as §1

The nature of series [12]: Log D, shake flask method. Type of series: physicochemical. Conditions: n-octanol/PBS. As to the method:
PBS buffer (0.01 M) and n-octanol were presaturated with each other overnight before the measurement. The PDE7 ligand [^18F]7, PBS (0.01 M, 5 mL), and n-octanol (5 mL) were combined and vortexed for 3 min, and then centrifuged (∼14 000 rpm, 5 min). The PBS fraction and n-octanol fraction were weighted and counted by γ counter. The log D was calculated as log[(radioactivityn-octanol/weightn-octanol)/(radioactivityPBS/weightPBS)].

In another series the test system is 66 major CNS targets. In words: Off-target binding profile against 66 major CNS targets. Conditions: 10 μM; except 5-HT2B and Sigma1.
The target in a further series is 5-HT2B (Homo sapiens, UniProt P41595). In words: Off-target binding: 5-HT2B.
The next series has as its target Sigma1 (Homo sapiens, UniProt Q99720). The experiment in a line: Off-target binding: Sigma1.
Series [13] has as its system PDE7. The experiment in a line: In vitro autoradiography in rat brain sections. It is filed as binding. Conditions: blocker 10 μM. As to the method:
Autoradiography studies were conducted as previously reported.[24],[25] In brief, SD rat brain sections ([…]) were preincubated with buffer (Tris-HCl, 50 mM) at ambient temperature for 20 min and then incubated with [^18F]7 (1 μCi/mL) for 30 min. After that, the brain sections were washed with cold buffer and water, dried with cold air, and exposed to the phosphor plate (12 h). In blocking studies, brain sections were incubated with [^18F]7 in the presence of compound 7 (10 μM) or P7–2104 (10 μM).

For series [14], the system named is PDE7. Also noted: method as in PMID 26330158. Conditions: read-out: PDE7 inhibitory potency IC50; cited from earlier work.

T1 sequence (Q07343 whole entry, species assumed): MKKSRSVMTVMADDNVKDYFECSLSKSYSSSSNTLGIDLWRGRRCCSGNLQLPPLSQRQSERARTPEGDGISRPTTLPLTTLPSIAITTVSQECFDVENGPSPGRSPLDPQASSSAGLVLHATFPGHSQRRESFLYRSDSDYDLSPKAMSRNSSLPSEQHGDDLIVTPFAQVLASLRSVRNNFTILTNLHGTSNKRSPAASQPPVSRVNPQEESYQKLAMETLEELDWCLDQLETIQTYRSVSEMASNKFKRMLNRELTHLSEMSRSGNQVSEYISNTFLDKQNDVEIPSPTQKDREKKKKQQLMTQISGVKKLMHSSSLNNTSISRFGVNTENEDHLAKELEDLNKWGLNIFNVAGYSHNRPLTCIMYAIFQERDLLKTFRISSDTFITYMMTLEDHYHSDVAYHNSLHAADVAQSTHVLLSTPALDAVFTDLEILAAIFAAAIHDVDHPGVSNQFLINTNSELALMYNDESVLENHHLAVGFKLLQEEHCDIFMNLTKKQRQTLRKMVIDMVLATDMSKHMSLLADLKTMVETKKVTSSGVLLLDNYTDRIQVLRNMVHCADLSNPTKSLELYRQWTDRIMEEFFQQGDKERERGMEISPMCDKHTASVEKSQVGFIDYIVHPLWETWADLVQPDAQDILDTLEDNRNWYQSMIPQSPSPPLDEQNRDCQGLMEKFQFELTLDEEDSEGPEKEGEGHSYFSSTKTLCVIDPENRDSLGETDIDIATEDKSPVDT
Chain of 5-HT2B (P41595 whole entry, species assumed): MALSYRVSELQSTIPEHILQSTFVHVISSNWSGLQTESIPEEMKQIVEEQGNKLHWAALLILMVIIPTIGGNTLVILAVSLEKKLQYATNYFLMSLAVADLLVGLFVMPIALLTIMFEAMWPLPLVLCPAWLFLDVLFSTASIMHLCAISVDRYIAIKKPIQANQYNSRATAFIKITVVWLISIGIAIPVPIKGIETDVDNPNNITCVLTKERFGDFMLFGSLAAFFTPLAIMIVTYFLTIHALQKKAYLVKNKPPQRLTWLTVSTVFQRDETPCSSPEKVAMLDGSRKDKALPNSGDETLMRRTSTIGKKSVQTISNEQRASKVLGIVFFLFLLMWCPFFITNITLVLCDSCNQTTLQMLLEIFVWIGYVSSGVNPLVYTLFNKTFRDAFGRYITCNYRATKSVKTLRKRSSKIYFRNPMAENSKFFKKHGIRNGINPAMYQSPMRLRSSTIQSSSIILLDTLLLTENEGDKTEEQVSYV
Chain of Sigma1 (Q99720 whole entry): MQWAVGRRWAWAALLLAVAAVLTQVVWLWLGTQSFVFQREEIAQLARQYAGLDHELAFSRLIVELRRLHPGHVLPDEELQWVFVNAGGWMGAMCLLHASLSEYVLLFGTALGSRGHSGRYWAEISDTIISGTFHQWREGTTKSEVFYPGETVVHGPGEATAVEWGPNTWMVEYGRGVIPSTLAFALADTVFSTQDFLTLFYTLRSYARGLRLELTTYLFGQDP

Take `CN(C)C(=O)c1cc(F)ccc1Oc1ccc(Cl)c2c1C1(CCCCC1)OC(=O)N2` [Compound 3, 2-((8-Chloro-2-oxo-1,2-dihydrospiro[benzo[d][1,3]oxazine-4,1′-cyclohexan]-5-yl)oxy)-5-fluoro-N,N-dimethylbenzamide]: the “Inhibiton at 0.5 nM” value with PDE7 [1] is -17%.

For `CN(C)C(=O)c1cccc(F)c1Oc1ccc(Cl)c2c1C1(CCCCC1)OC(=O)N2` [Compound 1, 2-((8-Chloro-2-oxo-1,2-dihydrospiro[benzo[d][1,3]oxazine-4,1′-cyclohexan]-5-yl)oxy)-3-fluoro-N,N-dimethylbenzamide], at PDE7 [1], the IC50 was 0.41 nM and the “Inhibiton at 0.5 nM” value is given as 50%. Further, the Kd on PDE7 [2] is 0.8 nM. Moreover, in series [3], the brain uptake is on record as 0.25 %ID/g.

For `CN(C)C(=O)c1c(F)cccc1Oc1ccc(Cl)c2c1C1(CCCCC1)OC(=O)N2` [Compound 4, 2-((8-Chloro-2-oxo-1,2-dihydrospiro[benzo[d][1,3]oxazine-4,1′-cyclohexan]-5-yl)oxy)-6-fluoro-N,N-dimethylbenzamide], in the series on PDE7 [1], the “Inhibiton at 0.5 nM” value is -10%.

As to `O=C1Nc2c(Cl)ccc(Oc3c(F)cccc3C(=O)N3CC([18F])C3)c2C2(CCCCC2)O1` [[^18F]7], at PDE7 [1], the IC50 came out at 0.18 nM and the “selectivity for PDE7 over other PDE subfamilies” value was above 400 fold. For the same compound, the “in vitro stability in saline” value in [4] is “no obvious decomposition or metabolite was observed”. Moreover, in [5], the “in vitro stability in mouse serum” value is listed as “no obvious decomposition or metabolite was observed”. Besides, the “in vitro stability in rat serum” value in series [6] is “no obvious decomposition or metabolite was observed”. Further, the “in vitro stability in NHP serum” value in [7] was “no obvious decomposition or metabolite was observed”. Besides, the “in vitro stability in human serum” value in [8] is “no obvious decomposition or metabolite was observed”. In addition, the “SUVpeak in striatum after elacridar” value in the series with PDE7 [9] (SD rats, elacridar 5 mg/kg i.v. 20 min before tracer) is 2.8. Besides, in the series on PDE7 [9] (SD rats, i.v., baseline), the “SUVpeak in striatum, baseline” value was determined as 0.35. In addition, the “increase of SUVpeak in striatum by elacridar” value in the series on PDE7 [9] (elacridar 5 mg/kg vs baseline) came out at 700%. Also, the “bone uptake at 5 min” value in series [10] (5 min) amounted to 1.6 %ID/g. Besides, in series [10] (60 min), the “bone uptake at 60 min” value stood at 0.3 %ID/g. The “initial radioactivity in liver, small intestine, kidney, pancreas, lung, and heart” value in series [10] (i.v., initially) is given as above 5 %ID/g. In addition, in series [10] (initially), the “brain uptake (biodistribution)” value is given as “low uptake”. Besides, in series [11], the “intact parent fraction in brain” value amounted to 92% and the “intact parent fraction in plasma” value worked out at 67%.

In the case of `O=C1Nc2c(Cl)ccc(Oc3c(F)cccc3C(=O)N3CCC3)c2C2(CCCCC2)O1` [Compound 5, 5-(2-(Azetidine-1-carbonyl)-6-fluorophenoxy)-8-chlorospiro[benzo[d][1,3]oxazine-4,1′-cyclohexan]-2(1H)-one], on PDE7 [1], the IC50 was determined as 0.04 nM and the “Inhibiton at 0.5 nM” value came out at 68%.

As for `O=C1Nc2c(Cl)ccc(Oc3c(F)cccc3C(=O)N3CC(F)C3)c2C2(CCCCC2)O1` [Compound 7, 8-Chloro-5-(2-fluoro-6-(3-fluoroazetidine-1-carbonyl)phenoxy)spiro[benzo[d][1,3]oxazine-4,1′-cyclohexan]-2(1H)-one], the IC50 is 0.18 nM against PDE7 [1] and 77.3 nM against PDE4B. Also, the “selectivity for PDE7 over other PDE subfamilies” value in the series on PDE7 [1] is on record as above 400 fold. Besides, the “Inhibiton at 0.5 nM” value with PDE7 [1] is 51%. Besides, the “inhibition of other PDEs subfamilies” value in the series on other PDEs subfamilies is below 50 % inhibition. Besides, the “activity against PDE4” value with PDE4 is given as “moderately active”. For the same compound, on PDE4B (3 μM), the PDE4B inhibition turned out to be 92 % inhibition. For the same compound, the logD in series [12] was found to be 3.27. The “off-target binding (>50% inhibition) against 66 major CNS targets” value with 66 major CNS targets was “No significant off-target binding”. In addition, the values for the Ki on 5-HT2B and at Sigma1 were 3360 nM and 7410 nM, respectively. Moreover, the “reduction of [18F]7 radioactivity signal in striatum (autoradiography blocking)” value in the series on PDE7 [13] amounted to 56%. In addition, the “reduction of [18F]7 SUVpeak in striatum (PET blocking)” value with PDE7 [9] (blocker 3 mg/kg i.v. with elacridar 5 mg/kg, SD rats) turned out to be 51%.

As to `CN(C)C(=O)c1ccc(F)cc1Oc1ccc(Cl)c2c1C1(CCCCC1)OC(=O)N2` [Compound 2, 2-((8-Chloro-2-oxo-1,2-dihydrospiro[benzo[d][1,3]oxazine-4,1′-cyclohexan]-5-yl)oxy)-4-fluoro-N,N-dimethylbenzamide], the “Inhibiton at 0.5 nM” value with PDE7 [1] came to 6%.

For the compound `CN(C(=O)c1cccc(F)c1Oc1ccc(Cl)c2c1C1(CCCCC1)OC(=O)N2)C1CC1` [Compound 6, 2-((8-Chloro-2-oxo-1,2-dihydrospiro[benzo[d][1,3]oxazine-4,1′-cyclohexan]-5-yl)oxy)-N-cyclopropyl-3-fluoro-N-methylbenzamide], the “Inhibiton at 0.5 nM” value in the series with PDE7 [1] is -13%.

Consider `O=C1Nc2c(Cl)ccc(OCC[18F])c2C2(CCCCC2)N1` [[^18F]MICA-003], for which the IC50 with PDE7 [14] was 17 nM.

The term IC50 denotes the concentration that inhibits the measured activity by half. Usually Kd stands for a measure of binding affinity in units of concentration. The logD is lipophilicity at a set pH, counting ionised and neutral species. Higher therefore signals a more lipophilic compound. Broadly, the Ki is a measure of affinity in units of concentration, obtained from inhibition or displacement. Low readings indicate tighter binding, high ones weaker binding.
